For one series, the system named is Rattus norvegicus. As to conditions: for NOAEL: inhalation.
The next series concerns Tagia sp. As to conditions: acute; duration: 14 days; mortality.
The test system of the next series is Apis mellifera. As to conditions: acute; duration: 48 hours; oral; unspecified; mortality.
Another series concerns Coturnix japonica. As to conditions: acute; oral; mortality.
The test system of another series is Oncorhynchus mykiss. As to conditions: acute; duration: 96 hours; mortality.
Setting [1] is: chronic, duration: 2 years, no effects.
The mark [2] stands for this setting: reproduction developmental, mortality.
The mark [3] stands for this setting: subchronic, duration: 90 days, no effects.

A word on the NOAEL: it is the highest dose or exposure tested at which no adverse effect was seen.

Consider `[Al+3].[P-3]` [Aluminum phosphide], for which the LD50 came to 8.7 mg/kg-day with Rattus norvegicus (acute, oral, mortality); 0.24 µg/piece with Apis mellifera; 49 mg/kg-day in the series with Coturnix japonica. Also, the no observed adverse effect level (NOAEL) in the series on Rattus norvegicus (setting [1]) was 1.1 mg/kg-day; in the series with Rattus norvegicus (setting [2]) it was 1.9 mg/kg-day; with Rattus norvegicus (setting [3]), 1.1 mg/kg-day. Moreover, the LC50 in the series with Tagia sp. turned out to be 664 mg/kg; in the series with Oncorhynchus mykiss, 4.68 ng/mL.
`P` [Phosphine]: the NOAEL with Rattus norvegicus (setting [1]) turned out to be 1.1 mg/kg-day; with Rattus norvegicus (developmental, duration: 10 days, development), 1.9 mg/kg-day; in the series on Rattus norvegicus (setting [2]) it was 1.9 mg/kg-day; in the series with Rattus norvegicus (subchronic, duration: 90 days, mortality), 1.11 mg/kg-day; in the series with Rattus norvegicus (setting [3]), 1.1 mg/kg-day.

These data come from EPA's ToxValDB 9.5 (doi:10.2903/j.efsa.2009.182r).
